# According to the supplement of paper PMC4628005:
# Columns and labels:
# Settings in all cases: drug exposure time: 96 h
# 17-AAG = compound: C=CCNC1=C2C[C@@H](C)C[C@H](OC)[C@H](O)[C@@H](C)/C=C(\C)[C@H](OC(N)=O)[C@@H](OC)/C=C\C=C(/C)C(=O)NC(=CC1=O)C2=O [17-AAG]
# Description: (§1)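 Same SRB 96 h IC50 screen on breast cancer cell lines (RPMI 1640 + 10% FBS, collagen I-coated 96-well plates, triplicates, 12 dilutions), for drugs with a different dose range: Bortezomib up to 2e-5 M; Sirolimus and 17-AAG up to 2e-6 M. Sirolimus values at the 2e-6 M top dose are censored.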
# Sirolimus = compound: CO[C@H]1C[C@@H]2CC[C@@H](C)[C@@](O)(O2)C(=O)C(=O)N2CCCC[C@H]2C(=O)O[C@H]([C@H](C)C[C@@H]2CC[C@@H](O)[C@H](OC)C2)CC(=O)[C@H](C)/C=C(\C)[C@@H](O)[C@@H](OC)C(=O)[C@H](C)C[C@H](C)/C=C/C=C/C=C/1C [Sirolimus]
# Description: as §1
# Bortezomib = compound: CC(C)C[C@H](NC(=O)[C@H](Cc1ccccc1)NC(=O)c1cnccn1)B(O)O [Bortezomib]
# Description: as §1
# Nutlin-3 = compound: COc1ccc(C2=N[C@@H](c3ccc(Cl)cc3)[C@@H](c3ccc(Cl)cc3)N2C(=O)N2CCNC(=O)C2)c(OC(C)C)c1 [Nutlin-3]
# Description: (§2)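 Breast cancer cell lines were grown in RPMI 1640 with 10% FBS on collagen I-coated 96-well plates and treated for 96 h (from 24 h after seeding) with 12 dilutions per drug, in triplicate. Growth was read by sulforhodamine B total-protein staining (absorbance 570 nm) relative to diluent control, and IC50 was calculated. The top dose was 1e-5 M for most drugs; Bortezomib went to 2e-5 M and Sirolimus and 17-AAG to 2e-6 M[…].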
# Mitoxantrone = compound: O=C1c2c(O)ccc(O)c2C(=O)c2c(NCCNCCO)ccc(NCCNCCO)c21 [Mitoxantrone]
# Description: as §2
# ARQ197 = compound: O=C1NC(=O)[C@@H](c2cn3c4c(cccc24)CCC3)[C@@H]1c1c[nH]c2ccccc12 [ARQ197]
# Description: as §2
# Tipifarnib = compound: Cn1cncc1[C@@](N)(c1ccc(Cl)cc1)c1ccc2c(c1)c(-c1cccc(Cl)c1)cc(=O)n2C [Tipifarnib]
# Description: as §2
# Quisinostat = compound: Cn1cc(CNCC2CCN(c3ncc(C(=O)NO)cn3)CC2)c2ccccc21 [Quisinostat]
# Description: as §2
# Erlotinib = compound: C#Cc1cccc(Nc2ncnc3cc(OCCOC)c(OCCOC)cc23)c1 [Erlotinib]
# Description: as §2
# Azacitidine = compound: Nc1ncn([C@@H]2O[C@H](CO)[C@@H](O)[C@H]2O)c(=O)n1 [Azacitidine]
# Description: as §2
# Lapatinib = compound: CS(=O)(=O)CCNCc1ccc(-c2ccc3ncnc(Nc4ccc(OCc5cccc(F)c5)c(Cl)c4)c3c2)o1 [Lapatinib]
# Description: as §2
# 5-Fluorouracil = compound: O=c1[nH]cc(F)c(=O)[nH]1 [5-Fluorouracil]
# Description: as §2
# Serdemetan = compound: c1ccc2c(CCNc3ccc(Nc4ccncc4)cc3)c[nH]c2c1 [Serdemetan]
# Description: as §2
# Vorinostat = compound: O=C(CCCCCCC(=O)Nc1ccccc1)NO [Vorinostat]
# Description: as §2
# Cisplatin = compound: N.N.[Cl][Pt][Cl] [Cisplatin]
# Description: as §2
# Panobinostat = compound: Cc1[nH]c2ccccc2c1CCNCc1ccc(/C=C/C(=O)NO)cc1 [Panobinostat]
# Description: as §2
# Methotrexate = compound: CN(Cc1cnc2nc(N)nc(N)c2n1)c1ccc(C(=O)N[C@@H](CCC(=O)O)C(=O)O)cc1 [Methotrexate]
# Description: as §2
# Belinostat = compound: O=C(/C=C/c1cccc(S(=O)(=O)Nc2ccccc2)c1)NO [Belinostat]
# Description: as §2
# Sorafenib = compound: CNC(=O)c1cc(Oc2ccc(NC(=O)Nc3ccc(Cl)c(C(F)(F)F)c3)cc2)ccn1 [Sorafenib]
# Description: as §2
# Sunitinib = compound: CCN(CC)CCNC(=O)c1c(C)[nH]c(/C=C2\C(=O)Nc3ccc(F)cc32)c1C [Sunitinib]
# Description: as §2
# Decitabine = compound: Nc1ncn([C@H]2C[C@H](O)[C@@H](CO)O2)c(=O)n1 [Decitabine]
# Description: as §2
# Vandetanib = compound: COc1cc2/c(=N/c3ccc(Br)cc3F)nc[nH]c2cc1OCC1CCN(C)CC1 [Vandetanib]
# Description: as §2
# Brivanib = compound: Cc1cc2c(F)c(Oc3ncnn4cc(OC[C@@H](C)O)c(C)c34)ccc2[nH]1 [Brivanib]
# Description: as §2
# Doxorubicin = compound: COc1cccc2c1C(=O)c1c(O)c3c(c(O)c1C2=O)C[C@@](O)(C(=O)CO)C[C@@H]3O[C@H]1C[C@H](N)[C@H](O)[C@H](C)O1 [Doxorubicin]
# Description: as §2
# Tamoxifen = compound: CC/C(=C(\c1ccccc1)c1ccc(OCCN(C)C)cc1)c1ccccc1 [Tamoxifen]
# Description: as §2
# Dasatinib = compound: Cc1nc(Nc2ncc(C(=O)Nc3c(C)cccc3Cl)s2)cc(N2CCN(CCO)CC2)n1 [Dasatinib]
# Description: as §2
# Paclitaxel = compound: CC(=O)O[C@H]1C(=O)[C@@]2(C)[C@H]([C@H](OC(=O)c3ccccc3)[C@]3(O)C[C@H](OC(=O)[C@H](O)[C@@H](NC(=O)c4ccccc4)c4ccccc4)C(C)=C1C3(C)C)[C@]1(OC(C)=O)CO[C@@H]1C[C@@H]2O [Paclitaxel]
# Description: as §2
# MI-219 = compound: CC(C)(C)C[C@H]1N[C@@H](C(=O)NCC[C@H](O)CO)[C@H](c2cccc(Cl)c2)[C@@]12C(=O)Nc1cc(Cl)c(F)cc12 [MI-219]
# Description: as §2
# Docetaxel = compound: CC(=O)O[C@@]12CO[C@@H]1C[C@H](O)[C@@]1(C)C(=O)[C@H](O)C3=C(C)[C@@H](OC(=O)[C@H](O)[C@@H](NC(=O)OC(C)(C)C)c4ccccc4)C[C@@](O)([C@@H](OC(=O)c4ccccc4)[C@H]21)C3(C)C [Docetaxel]
# Description: as §2
# Gefitinib = compound: COc1cc2ncnc(Nc3ccc(F)c(Cl)c3)c2cc1OCCCN1CCOCC1 [Gefitinib]
# Description: as §2
Test System,IC50 (SRB growth assay) (17-AAG) [nM],IC50 (SRB growth assay) (Sirolimus) [pM],IC50 (SRB growth assay) (Bortezomib) [nM],IC50 (SRB growth assay) (Nutlin-3) [µM],IC50 (SRB growth assay) (Mitoxantrone) [nM],IC50 (SRB growth assay) (ARQ197) [nM],IC50 (SRB growth assay) (Tipifarnib) [nM],IC50 (SRB growth assay) (Quisinostat) [nM],IC50 (SRB growth assay) (Erlotinib) [µM],IC50 (SRB growth assay) (Azacitidine) [µM],IC50 (SRB growth assay) (Lapatinib) [µM],IC50 (SRB growth assay) (5-Fluorouracil) [µM],IC50 (SRB growth assay) (Serdemetan) [µM],IC50 (SRB growth assay) (Vorinostat) [nM],IC50 (SRB growth assay) (Cisplatin) [µM],IC50 (SRB growth assay) (Panobinostat) [nM],IC50 (SRB growth assay) (Methotrexate) [nM],IC50 (SRB growth assay) (Belinostat) [nM],IC50 (SRB growth assay) (Sorafenib) [µM],IC50 (SRB growth assay) (Sunitinib) [µM],IC50 (SRB growth assay) (Decitabine) [µM],IC50 (SRB growth assay) (Vandetanib) [µM],IC50 (SRB growth assay) (Brivanib) [µM],IC50 (SRB growth assay) (Doxorubicin) [nM],IC50 (SRB growth assay) (Tamoxifen) [µM],IC50 (SRB growth assay) (Dasatinib) [µM],IC50 (SRB growth assay) (Paclitaxel) [nM],IC50 (SRB growth assay) (MI-219) [µM],IC50 (SRB growth assay) (Docetaxel) [pM],IC50 (SRB growth assay) (Gefitinib) [µM]
OCUB-M,119,132,3.35,> 10,1.27,483,156,5.92,9.58,1.69,2.2,1.88,2.85,520,> 10,8.13,6.6,133,3.83,3.52,3.68,2.77,> 10,1.98,> 10,> 10,0.888,> 10,279,> 10
MDA-MB 415,71.8,688,10.8,> 10,31.3,691,6780,24.1,> 10,> 10,> 10,6.53,6.07,1530,> 10,23.6,326,548,5.2,5.1,> 10,4.78,> 10,66,9.97,> 10,5.81,> 10,764,> 10
CAMA 1,22.7,106,6.12,> 10,6.16,424,3040,2.87,> 10,5.56,4.2,1.56,1.52,1020,> 10,12.6,8300,339,5.24,5.68,1.04,> 10,> 10,21.8,7.98,> 10,1.95,> 10,662,> 10
SKBR 3,18.9,587,5.5,> 10,4.74,404,279,3.33,3.74,2.69,0.0437,4.77,1.08,499,> 10,5.39,9.97,190,4.79,3.41,2.35,3.49,> 10,20.4,6.72,> 10,1.68,> 10,589,2.63
T 47 D,913,143,1.7,> 10,2.65,1460,403,8.14,7.14,7.3,2.21,2.8,1.1,828,> 10,10.5,> 10000,239,2.73,4.31,> 10,2.52,> 10,10.4,3.42,> 10,1.72,> 10,620,8.77
BT 20,535,232,13.9,> 10,10.9,511,31.9,8.27,6.14,1.14,5.8,2.83,2.27,586,> 10,7.93,> 10000,197,3.78,> 10,> 10,9.41,> 10,10.5,0.0494,> 10,1.79,> 10,541,> 10
HCC 1500,905,274,5.55,2.67,30.6,197,1050,9.34,0.617,2.33,0.529,3.93,1.96,987,> 10,12.8,> 10000,367,6.09,8.23,6.21,1.28,> 10,40.3,> 10,0.959,3.44,1.07,745,0.679
